# According to patent US8461181B2, “Fused heterocyclic compound and use thereof” (Sumitomo Chemical Company, Ltd., priority 2009, dated 2013):
# Test system: Aphis gossypii
# Test: Test Example 4: foot drench of cucumber seedling in plastic cup, inoculation after 7 days, Aphis gossypii
# Assay type: in vivo
# Settings: soil, 144 h, 5 ml drench at foot of cucumber seedling in plastic cup, kept 7 days at 25° C., inoculated, further 6 days
# Experimental: The formulations of the present active compounds (3) to (7), (17), (19), (20), (22), (29) to (31), (35) to (37), (39), (41) to (45), (47) to (56), (101), (106), (121) to (123), (128), (131), (137), (139), (143), (145), (147), (211) to (213), (216) and (217) obtained by Formulation Example 5 were diluted with water so that the active ingredient concentration was 500 ppm, to prepare diluted solutions for test. Separately, a cucumber seedling (second true leaf spreading stage) planted on a plastic cup was drenched at its foot with each 5 ml of the diluted solutions, and kept in a greenhouse of 25° C. for 7 days. The cucumber leaf surface was inoculated with 30 Aphis gossypii (whole stage), and further kept in the greenhouse for 6 days, then, the number of insect of living Aphis gossypii […] on the leaves of this cucumber was checked, and the control value was calculated according to the following formula. Control value (%)={1-(Cb×Tai)/(Cai×Tb)}×100 Letters in the formula represent the following meanings. Cb: the number of insect before treatment on non-treated district Cai: the number of insect in observation on non-treated district Tb: the number of insect before treatment on treated district Tai: the number of insect in observation on treated district
row,SMILES,pest or weed control at 500 ppm [%]
1,"Cn1c(-c2ccncc2S(C)(=O)=O)nc2cc(C(F)(F)F)ccc21 [present active compound 19, 2-(3-methanesulfonylpyridin-4-yl)-1-methyl-5-trifluoromethyl-1H-benzimidazole]",≥ 90
2,"CCOc1cnccc1-c1nc2cc(C(F)(F)F)cnc2n1C [present active compound 39, 2-(3-ethoxypyridin-4-yl)-3-methyl-6-trifluoromethyl-3H-imidazo[4,5-b]pyridine]",≥ 90
3,CC(C)Sc1cnccc1-c1nc2cc(C(F)(F)F)cnc2n1C [present active compound 101],≥ 90
4,Cn1c(-c2ccncc2SCCF)nc2cc(C(F)(F)F)cnc21 [present active compound 128],≥ 90
5,CN(C)S(=O)(=O)c1cnccc1-c1nc2cc(C(F)(F)F)cnc2n1C [present active compound 131],≥ 90
6,CNC(=O)c1cnccc1-c1nc2cc(C(F)(F)F)cnc2n1C [present active compound 137],≥ 90
7,COC(=O)c1cnccc1-c1nc2cc(C(F)(F)F)cnc2n1C [present active compound 143],≥ 90
8,Cn1c(-c2ccncc2SCC2CC2)nc2cc(C(F)(F)F)cnc21 [present active compound 145],≥ 90
9,COCCSc1cnccc1-c1nc2cc(C(F)(F)F)cnc2n1C [present active compound 147],≥ 90

# Test system: Nilaparvata lugens
# Test: Test Example 9: foot drench of rice seedling, twenty first instar larvae of Nilaparvata lugens
# Assay type: in vivo
# Settings: soil, 144 h, 5 ml drench at foot of rice seedling, kept 7 days, twenty first instar larvae released, further 6 days
# Experimental: The formulations of the present active compounds (6), (7), (18), (22), (25), (30), (33), (46), (47), (53), (101) to (103), (106), (121) to (124), (126) to (128), (135), (139), (216) and (217) obtained by Formulation Example 5 were diluted with water so that the active ingredient concentration was 500 ppm, to prepare diluted solutions for test. Separately, a rice seedling (2 weeks after sowing, second leaf spreading stage) planted on a plastic cup was drenched at its foot with each 5 ml of the diluted solutions, and kept in a greenhouse of 25° C. for 7 days. Twenty first instar larvae of Nilaparvata lugens were released, and further kept in the greenhouse for 6 days, then, the number of insect of living Nilaparvata lugens […] on rice was checked, and the control value was calculated according to the following formula. Control value (%)={1-(Cb×Tai)/(Cai×Tb)}×100 Letters in the formula represent the following meanings. Cb: the number of insect before treatment on non-treated district Cai: the number of insect in observation on non-treated district Tb: the number of insect before treatment on treated district Tai: the number of insect in observation on treated district
row,SMILES,pest or weed control at 500 ppm [%]
1,"C[S+]([O-])c1cnccc1-c1nc2cc(C(F)(F)F)ccc2n1C1CC1 (stereo not drawn) [present active compound 30, 1-cyclopropyl-2-(3-methanesulfinylpyridin-4-yl)-5-trifluoromethyl-1H-benzimidazole]",≥ 90
2,"CC[S+]([O-])c1cnccc1-c1nc2cc(C(F)(F)F)ccc2n1C1CC1 (stereo not drawn) [present active compound 33, 1-cyclopropyl-2-(3-ethanesulfinylpyridin-4-yl)-5-trifluoromethyl-1H-benzimidazole]",≥ 90
3,"CCOCCOc1cnccc1-c1nc2cc(C(F)(F)F)cnc2n1C [present active compound 47, 2-[3-(2-ethoxyethoxy)-pyridin-4-yl]-3-methyl-6-trifluoromethyl-3H-imidazo[4,5-b]pyridine]",≥ 90
4,C#CCSc1cnccc1-c1nc2cc(C(F)(F)F)cnc2n1C [present active compound 135],≥ 90

# Test system: Nilaparvata lugens
# Test: Test Example 8: spray on rice seedling, 20 first instar larvae of Nilaparvata lugens
# Assay type: in vivo
# Settings: 144 h, 10 ml sprayed on rice seedling, 20 first instar larvae released, 6 days at 25° C.
# Experimental: The formulations of the present active compounds (6), (7), (18), (21), (24), (25), (28) to (30), (32), (46), (52), (101) to (103), (105) to (107), (111), (112), (115), (119) to (124), (126) to (130), (133) to (135), (139), (142), (144) to (146), (149) to (151), (153), (154), (216) and (217) obtained by Formulation Example 5 were diluted with water so that the active ingredient concentration was 500 ppm, to prepare spray solutions for test. Separately, on a rice seedling (2 weeks after sowing, second leaf spreading stage) planted on a plastic cup, the drug solutions for test prepared as described above were sprayed each in an amount of 10 ml. After drying of the drug solution sprayed on rice, 20 first instar larvae of Nilaparvata lugens were released, and kept in a greenhouse of 25° C. for 6 days. Thereafter, the number of Nilaparvata lugens […] on rice was checked, and the control value was calculated according to the following formula. Control value (%)={1-(Cb×Tai)/(Cai×Tb)}×100 Letters in the formula represent the following meanings. Cb: the number of insect before treatment on non-treated district Cai: the number of insect in observation on non-treated district Tb: the number of insect before treatment on treated district Tai: the number of insect in observation on treated district
row,SMILES,pest or weed control at 500 ppm [%]
1,"CC[S+]([O-])c1cnccc1-c1nc2cc(C(F)(F)F)ccc2n1C (stereo not drawn) [present active compound 21, 2-(3-ethanesulfinylpyridin-4-yl)-1-methyl-5-trifluoromethyl-1H-benzimidazole]",≥ 90
2,"Cn1c(-c2cc[n+]([O-])cc2)nc2cc(C(F)(F)F)ccc21 [present active compound 24, 1-methyl-2-(1-oxypyridin-4-yl)-5-trifluoromethyl-1H-benzimidazole]",≥ 90
3,"CCSc1cnccc1-c1nc2cc(C(F)(F)F)ccc2n1C1CC1 [present active compound 32, 1-cyclopropyl-2-(3-ethylthiopyridin-4-yl)-5-trifluoromethyl-1H-benzimidazole]",≥ 90
4,"CC[S+]([O-])c1cnccc1-c1nc2cc(C(F)(F)F)cnc2n1C (stereo not drawn) [present active compound 52, 2-(3-ethanesulfinylpyridin-4-yl)-3-methyl-6-trifluoromethyl-3H-imidazo[4,5-b]pyridine]",≥ 90
5,Cn1c(-c2ccncc2OCC(C)(C)C)nc2cc(C(F)(F)F)cnc21 [present active compound 111],≥ 90
6,CC(C)COc1cnccc1-c1nc2cc(C(F)(F)F)cnc2n1C [present active compound 112],≥ 90
7,Cn1c(-c2ccncc2S)nc2cc(C(F)(F)F)cnc21 [present active compound 115],≥ 90
8,Cn1c(-c2ccncc2C(=O)NCC#N)nc2cc(C(F)(F)F)cnc21 [present active compound 142],≥ 90
9,Cn1c(-c2ccncc2SCC#N)nc2cc(C(F)(F)F)cnc21 [present active compound 153],≥ 90
10,Cn1c(-c2ccncc2SCC#N)nc2cc(C(F)(F)F)ccc21 [present active compound 154],≥ 90

# Test system: Aphis gossypii
# Test: Test Example 3: root immersion of cucumber seedling, Aphis gossypii
# Assay type: in vivo
# Settings: 168 h, cucumber root part immersed in 5 ml, inoculated one day after treatment, checked seven days after
# Experimental: The formulations of the present active compounds (18), (19), (21), (22), (24), (25), (28), (31) to (34), (46), (47), (52), (53), (101) to (104), (106) to (108), (112) to (114), (117), (118), (122), (123), (126), (128), (129), (133), (134), (138), (144), (153) to (155) and (157) obtained by Formulation Example 5 were diluted with water so that the active ingredient concentration was 500 ppm, to prepare diluted solutions for test. A root part of a cucumber seedling (first true leaf spreading stage) from which soil had been washed off was immersed in 5 ml of this diluted solution, and one day after treatment, the cucumber leaf surface was inoculated with 30 Aphis gossypii (whole stage). Further seven days after, the number of insect of living Aphis gossypii […] on the leaves of this cucumber was checked, and the control value was calculated according to the following formula. Control value (%)={1-(Cb×Tai)/(Cai×Tb)}×100 Letters in the formula represent the following meanings. Cb: the number of insect before treatment on non-treated district Cai: the number of insect in observation on non-treated district Tb: the number of insect before treatment on treated district Tai: the number of insect in observation on treated district
row,SMILES,pest or weed control at 500 ppm [%]
1,"Cn1c(-c2ccncc2S(C)(=O)=O)nc2cc(C(F)(F)F)ccc21 [present active compound 19, 2-(3-methanesulfonylpyridin-4-yl)-1-methyl-5-trifluoromethyl-1H-benzimidazole]",≥ 90
2,"CC[S+]([O-])c1cnccc1-c1nc2cc(C(F)(F)F)ccc2n1C (stereo not drawn) [present active compound 21, 2-(3-ethanesulfinylpyridin-4-yl)-1-methyl-5-trifluoromethyl-1H-benzimidazole]",≥ 90
3,"Cn1c(-c2cc[n+]([O-])cc2)nc2cc(C(F)(F)F)ccc21 [present active compound 24, 1-methyl-2-(1-oxypyridin-4-yl)-5-trifluoromethyl-1H-benzimidazole]",≥ 90
4,"Fc1cnccc1-c1nc2cc(C(F)(F)F)ccc2n1C1CC1 [present active compound 28, 1-cyclopropyl-2-(3-fluoropyridin-4-yl)-5-trifluoromethyl-1H-benzimidazole]",≥ 90
5,"CCOCCOc1cnccc1-c1nc2cc(C(F)(F)F)cnc2n1C [present active compound 47, 2-[3-(2-ethoxyethoxy)-pyridin-4-yl]-3-methyl-6-trifluoromethyl-3H-imidazo[4,5-b]pyridine]",≥ 90
6,"CC[S+]([O-])c1cnccc1-c1nc2cc(C(F)(F)F)cnc2n1C (stereo not drawn) [present active compound 52, 2-(3-ethanesulfinylpyridin-4-yl)-3-methyl-6-trifluoromethyl-3H-imidazo[4,5-b]pyridine]",≥ 90
7,Cn1c(-c2ccncc2SC(F)(F)F)nc2cc(C(F)(F)F)ccc21 [present active compound 122],≥ 90
8,Cn1c(-c2ccncc2SCC(F)F)nc2cc(C(F)(F)F)cnc21 [present active compound 123],≥ 90
9,Cn1c(-c2ccncc2SC(F)(F)C(F)F)nc2cc(C(F)(F)F)cnc21 [present active compound 126],≥ 90
10,Cn1c(-c2ccncc2SCCF)nc2cc(C(F)(F)F)cnc21 [present active compound 128],≥ 90
11,Cn1c(-c2ccncc2SCCF)nc2cc(C(F)(F)F)ccc21 [present active compound 129],≥ 90
12,C=CCSc1cnccc1-c1nc2cc(C(F)(F)F)cnc2n1C [present active compound 133],≥ 90
13,C=CCSc1cnccc1-c1nc2cc(C(F)(F)F)ccc2n1C [present active compound 134],≥ 90
14,CCNC(=O)c1cnccc1-c1nc2cc(C(F)(F)F)cnc2n1C [present active compound 138],≥ 90
15,CCOC(=O)c1cnccc1-c1nc2cc(C(F)(F)F)cnc2n1C [present active compound 144],≥ 90
16,COC(=O)CSc1cnccc1-c1nc2cc(C(F)(F)F)cnc2n1C [present active compound 157],≥ 90
